Several values for one entry are separate records, joined by “and”; a condition that tells them apart may be missing. Identical values can stand only once. Entries after “also recorded” stand apart in the source; their conditions may differ. Like-named read-outs stand apart in the source and are kept apart here.
Legend:
[1] = target: T1, Human CatG (Homo sapiens, UniProt P08311); assay: Direct inhibition of CatG, chromogenic substrate (S-7388) hydrolysis assay, IC50 determination; type: biochemical; conditions: 100 mM NaCl
T1 construct: purchased Elastin Products Company (Owensville, MO, USA)
T1 sequence (P08311 21-255): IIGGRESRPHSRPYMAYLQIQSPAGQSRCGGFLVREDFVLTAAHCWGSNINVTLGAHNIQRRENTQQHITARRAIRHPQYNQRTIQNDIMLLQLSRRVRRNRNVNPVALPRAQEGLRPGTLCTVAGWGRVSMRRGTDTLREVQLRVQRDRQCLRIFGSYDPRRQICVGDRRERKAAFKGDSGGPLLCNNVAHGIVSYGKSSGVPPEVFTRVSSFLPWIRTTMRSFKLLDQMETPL
Procedure: A chromogenic substrate hydrolysis assay was used to determine the direct inhibition of CatG by the NSGMs, as previously reported. To each well of a 96-well microplate containing 88 µL of 20 mM tris buffer, containing 100 mM NaCl, 2.5 mM CaCl2, 0.1% PEG 8000, and 0.05% Tween 80, 4 µL of CatG (final concentration of 60 nM) and 5 µL of H2O or NSGM (final concentration of 0–100 µM) were added. After incubating for a period of 5 min, 3 µL of CatG substrate (S-7388, final concentration of 750 µM) was added, and the residual CatG activity was obtained from the initial rate of increase of absorbance at 405 nm. The relative residual activity of CatG for each of the NSGMs, at the various concentrations, was calculated from the ratio of CatG activity in the presence and absence of NSGMs. The dose dependence curve was plotted using a logistic equation (see below) in Sigmaplot version 12 to obtain the IC50 (potency), Hill slope (HS), and efficacy (ΔY). Here, Y is the ratio of residual CatG activity in the presence of NSGMs to that in their absence, YO and YM are the minimum and maximum values of fractional residual CatG activity, respectively, IC50 is the concentration of the NSGM that inhibits CatG activity by 50%, and HS is the Hill slope. ΔY = YM − YO. Y=YO+YM−YO/1+10^logI0−logIC50HS
Figure 4 Representative IC50 profiles for CatG inhibition by NSGMs. Direct inhibition of human CatG was measured using the chromogenic substrate hydrolysis assay at pH 7.4 and 37 °C. Solid lines represent analysis using the logistic dose–response relationship (Equation (1)) to obtain the IC50, ΔY%, and HS. Errors represent ± 1 S.E.

[2] = target: T1, Human CatG; assay: Michaelis-Menten kinetics of CatG hydrolysis of chromogenic substrate S-7388 in the presence of NSGM 25; type: biochemical
Procedure: […] The data were analyzed using the standard Michaelis–Menten equation in Sigmaplot version 12 to determine the KM and VMAX.
Figure 5 Kinetics of inhibition of 60 nM CatG by NSGM 25. Michaelis–Menten kinetics of CatG hydrolysis of chromogenic substrate (S-7388) in the presence of NSGM 25. Experiments were performed at 37 °C in 20 mM tris buffer, pH 7.4. Solid lines represent nonlinear regression analysis of the data using the standard Michaelis-Menten to calculate KM and VMAX.

[3] = system: human plasma; assay: Prothrombin time (PT) clotting assay; type: biochemical
Procedure: The impacts of NSGM 25 on activated partial thromboplastin time (aPTT) and the prothrombin time (PT) of human plasma were measured employing a standard one-stage recalcification assay at 37 °C, as previously reported. CaCl2 and thromboplastin-D were used to initiate clotting in aPTT and PT assays, respectively, in the absence and presence of NSGM 25, and the time to clot was recorded accordingly.

[4] = system: thrombin; set-up: method as in PMID 9790687; conditions: previous study; read-out: inhibitory potency; cited from earlier work
[5] = system: factor Xa; set-up: method as in PMID 9790687; conditions: previous study; read-out: inhibitory potency; cited from earlier work
[6] = system: factor XIa; set-up: method as in PMID 9790687; conditions: previous study; read-out: inhibitory potency; cited from earlier work
[7] = 50 nM NSGM 25, substrate S-7388, pH 7.4, 37 °C

- IC50 ([1]; pH 7.4, read-out: IC50 (potency)): ~50 nM and 53 nM
- HS (Hill slope) ([1]; Hill slope of dose-response fit, pH 7.4): 0.7 ± 0.1
- IC50 ([1]; pH 7.4 tris buffer, 37 °C, 60 nM CatG, 750 µM S-7388, ± 1 S.E., read-out: IC50): 50 ± 10 nM
- ΔY (efficacy) ([1]; ΔY = YM − YO of dose-response fit, pH 7.4): 95 ± 7%
- Km [2, 7]: 2180 ± 270 µM
- VMAX [2, 7]: 52.9 ± 4.1 mAu/min
- Km ([2]; 100 nM NSGM 25): 1310 ± 60 µM
- VMAX ([2]; 100 nM NSGM 25): 31.0 ± 0.8 mAu/min
- Km ([2]; 150 nM NSGM 25): 870 ± 200 µM
- VMAX ([2]; 150 nM NSGM 25): 21.1 ± 2.1 mAu/min
- Km ([2]; 200 nM NSGM 25): 800 ± 110 µM
- VMAX ([2]; 200 nM NSGM 25): 17.0 ± 1.0 mAu/min
- Km ([2]; 400 nM NSGM 25): 770 ± 300 µM
- VMAX ([2]; 400 nM NSGM 25): 12 ± 2 mAu/min and 12.4 ± 2.1 mAu/min
- mechanism of CatG inhibition ([2]; from simultaneous reduction in KM and VMAX): uncompetitive
Compound: O=c1c(OS(=O)(=O)O)c(-c2ccc(OS(=O)(=O)O)c(OS(=O)(=O)O)c2)oc2cc(OS(=O)(=O)O)cc(OCc3ccc(COc4cc(OS(=O)(=O)O)cc5oc(-c6ccc(OS(=O)(=O)O)c(OS(=O)(=O)O)c6)c(OS(=O)(=O)O)c(=O)c45)cc3)c12 [NSGM 25]
- PT (EC2X) ([3]; concentration required to double the PT of pooled human plasma): >1000 µM
- effect on PT clotting time ([3]; human plasma, concentration as high as 1 mM): did not impact; also recorded: did not extend
- IC50 [4]: > 150000 nM
- IC50 [5]: > 150000 nM
- IC50 [6]: > 150000 nM

Source: paper PMC10216581, “Homogeneous, Synthetic, Non-Saccharide Glycosaminoglycan Mimetics as Potent Inhibitors of Human Cathepsin G” (Biomolecules, 2023)
